This is an account of results in ChEMBL document CHEMBL5053548, “Subphthalocyanines as Efficient Photosensitizers with Nanomolar Photodynamic Activity against Cancer Cells” (J Med Chem, 2021).

The nature of series [1]: Fluorescence property of compound in MeOH assessed as life time. The format is physicochemical.
A short description of series [2]: Fluorescence property of compound in MeOH assessed as quantum yield. The class given is physicochemical.
The nature of series [3]: Emission maximum of the compound in THF. The format is physicochemical.
Series [4] is described as follows: Absorption maximum of the compound in MeOH. The class given is physicochemical.
Series [5] in a line: Induction of singlet oxygen generation in MeOH assessed as singlet oxygen quantum yield. The class given is functional.

With `CC1(C)CCC(C)(C)c2cc3c(cc21)C1=Nc2c4cc5c(cc4c4n2[B-]2(Cl)n6c(c7cc8c(cc7c6=N4)C(C)(C)CCC8(C)C)=NC3=[N+]12)C(C)(C)CCC5(C)C` (stereo not given), the Activity in series [1] turned out to be 2.04 nanoseconds; in series [2] it was 0.18; in series [3], 587 nm; in series [4], 575 nm; in series [5], 0.65.
